Assay results reported in patent US20220023258A1, “METHODS OF TREATING CONDITIONS RELATED TO THE S1P1 RECEPTOR” (Arena Pharmaceuticals, Inc., priority 2018, published 2022).

How the values were obtained:
subjects = test: Phase 1 single dose study: safety and tolerability
Experimental: A phase 1 study with Compound 1 was conducted with single dosing at 0.1 mg, 0.35 mg, 1 mg, 3 mg, and 5 mg. Compound 1 was administered as the L-arginine salt.

male Sprague-Dawley rats = settings: see WO2010/011316, Example 9; cited from earlier work
[1] = tested on: peripheral blood lymphocyte (PBL) counts; test: Phase 1 single dose study: peripheral blood lymphocyte counts; type: in vivo, human
Experimental: Compound 1 was administered as the L-arginine salt.

O=C(O)C[C@H]1CCc2c1[nH]c1ccc(OCc3ccc(C4CCCC4)c(C(F)(F)F)c3)cc21 [Compound 1, (R)-2-(7-(4-cyclopentyl-3-(trifluoromethyl)benzyloxy)-1,2,3,4-tetrahydrocyclopenta[b]indol-3-yl)acetic acid]
other safety issues (vital signs, ECGs, pulmonary function tests, ophthalmoscopy, clinical laboratory tests) (subjects; in vivo): no other clinically significant safety issues | maximum tolerated dose (subjects; single dosing): 3 mg | deaths or serious adverse events (subjects; single dosing 0.1-5 mg): no deaths or serious adverse events | bradycardia (male Sprague-Dawley rats): no or substantially no bradycardia | PBL counts reduced ([1]; single dose 3 mg): ~40% | PBL counts reduced ([1]; single dose 5 mg): ~55% | absolute number of peripheral blood B cells, T cells, NK cells, and all T cell subsets except TEM cells ([1]; single dose 3 and 5 mg): dose responsive decline | persistence of PBL nadir ([1]; single dosing): 24 h | time after dosing by which total PBL counts were reduced ([1]; single dosing): 2 to 4 h | time of nadir of total PBL counts ([1]; single dosing): ≤ 8 h | recovery of PBL counts to baseline ([1]; single dosing, after nadir period): 4 days
